Where a name gives a salt, the structure may show the parent alone. Read-outs that look alike come from different tables or passages of the source.
How the values were obtained:
SARS-COV-2 = assay: microbe, parasite or virus in culture; type: cell-based; parameters: SI (Selectivity Index, CC50/IC50): unit not given here; conditions: for SI (Selectivity Index, CC50/IC50): SARS-COV-2, values >50 assumed to be 50; for IC50: read-out: SARS-COV-2 inhibition (IC50)
in vitro = conditions: African green monkey
[1] = Severe acute respiratory syndrome coronavirus 2, Vero cells, 24 hours infection
[2] = Severe acute respiratory syndrome coronavirus 2, Vero, 24 h

SMILES: COc1cc2cc3c(c(-c4ccc(N(C)C(=O)N5CCOCC5)nc4)c2cc1OC)C(=O)OC3 [Example 235, N-(5-(6,7-dimethoxy-3-oxo-1,3-dihydronaphtho[2,3-c]furan-4-yl)pyridin-2-yl)-N-methylmorpholin-4-carboxamide]
- SI (Selectivity Index, CC50/IC50) (SARS-COV-2): 1.00
- IC50 (SARS-COV-2; [1]): > 50 µM
- CC50 (in vitro): > 50 µM

SMILES: COc1cc2cc3c(c(-c4cnc(N5CCC6(CC5)OCCO6)nc4)c2cc1OC)C(=O)OC3 [Example 89, 9-(2-(1,4-dioxa-8-azaspiro[4.5]decan-8-yl)pyrimidin-5-yl)-6,7-dimethoxynaphtho[2,3-c]furan-1(3H)-one]
- SI (Selectivity Index, CC50/IC50) (SARS-COV-2): 1.00
- IC50 (SARS-COV-2; [1]): > 50 µM
- CC50 (in vitro): > 50 µM

SMILES: COc1cc2cc3c(c(-c4ccc(N(C)c5ccc(C#N)cc5)nc4)c2cc1OC)C(=O)OC3.Cl [Example 218, 4-((5-(6,7-dimethoxy-3-oxo-1,3-dihydronaphtho[2,3-c]furan-4-yl)pyridin-2-yl)(methyl)amino)benzonitrile]
- SI (Selectivity Index, CC50/IC50) (SARS-COV-2): 65.75
- IC50 (SARS-COV-2; [2]): 0.76 µM
- CC50 (in vitro): > 50 µM

SMILES: COc1cc2cc3c(c(-c4cnc(N5CC(C)CC(C)C5)nc4)c2cc1OC)C(=O)OC3 (stereo not drawn) [Example 57, 9-(2-(3,5-dimethylpiperidin-1-yl)pyrimidin-5-yl)-6,7-dimethoxynaphtho[2,3-c]furan-1(3H)-one]
- SI (Selectivity Index, CC50/IC50) (SARS-COV-2): 12.07
- IC50 (SARS-COV-2; [1]): 4.14 µM
- CC50 (in vitro): > 50 µM

SMILES: CCCN(CCO)c1ncc(-c2c3c(cc4cc(OC)c(OC)cc24)COC3=O)cn1.Cl [Example 77, 9-(2-((2-hydroxyethyl)(propyl)amino)pyrimidin-5-yl)-6,7-dimethoxynaphtho[2,3-c]furan-1(3H)-one hydrochloride]
- SI (Selectivity Index, CC50/IC50) (SARS-COV-2): 1.58
- IC50 (SARS-COV-2; [2]): 31.6 µM
- CC50 (in vitro): > 50 µM

SMILES: COc1cc2cc3c(c(-c4cc5c(cc4OC(=O)c4ccncc4)OCO5)c2cc1OC)C(=O)OC3 [Example 271, 6-(6,7-dimethoxy-3-oxo-1,3-dihydronaphtho[2,3-c]furan-4-yl)benzo[d][1,3]dioxol-5-yl isonicoinate]
- SI (Selectivity Index, CC50/IC50) (SARS-COV-2): 34.41
- IC50 (SARS-COV-2; [1]): 1.45 µM
- CC50 (in vitro): > 50 µM

SMILES: COc1cc2cc3c(c(-c4cc5c(cc4OC(=O)OC(C)C)OCO5)c2cc1OC)C(=O)OC3 [Example 98, 6-(6,7-dimethoxy-3-oxo-1,3-dihydronaphtho[2,3-c]furan-4-yl)benzo[d][1,3]dioxol-5-yl isopropyl carbonate]
- SI (Selectivity Index, CC50/IC50) (SARS-COV-2): 3.18
- IC50 (SARS-COV-2; [1]): 15.7 µM
- CC50 (in vitro): > 50 µM

SMILES: CCN(C)c1ccc(-c2c3c(cc4cc(OC)c(OC)cc24)COC3=O)cc1 [Example 248, 9-(4-(ethyl(methyl)amino)phenyl)-6,7-dimethoxynaphtho[2,3-c]furan-1(3H)-one]
- SI (Selectivity Index, CC50/IC50) (SARS-COV-2): 344.5
- IC50 (SARS-COV-2; [1]): < 0.098 µM
- CC50 (in vitro): > 50 µM

SMILES: COc1cc2cc3c(c(-c4ccnc5ccc(F)cc45)c2cc1OC)C(=O)OC3 [Example 148, 9-(6-fluoroquinolin-4-yl)-6,7-dimethoxynaphtho[2,3-c]furan-1(3H)-one]
- SI (Selectivity Index, CC50/IC50) (SARS-COV-2): 1.0
- IC50 (SARS-COV-2; [1]): > 50 µM
- CC50 (in vitro): > 50 µM

SMILES: COc1cc2cc3c(c(-c4ccc(N(C)C)c([N+](=O)[O-])c4)c2cc1OC)C(=O)OC3.Cl [Example 217, 9-(4-(dimethylamino)-3-nitrophenyl)-6,7-dimethoxynaphtho[2,3-c]furan-1(3H)-one]
- SI (Selectivity Index, CC50/IC50) (SARS-COV-2): 10.06
- IC50 (SARS-COV-2; [2]): 4.97 µM
- CC50 (in vitro): > 50 µM

SMILES: COc1cc2cc3c(c(-c4cnc(N5CCC[C@H]5CO)nc4)c2cc1OC)C(=O)OC3.Cl [Example 83, (S)-9-(2-(2-(hydroxymethyl)pyrrolidin-1-yl)pyrimidin-5-yl)-6,7-dimethoxynaphtho[2,3-c]furan-1(3H)-one hydrochloride]
- SI (Selectivity Index, CC50/IC50) (SARS-COV-2): 1.65
- IC50 (SARS-COV-2; [2]): 30.3 µM
- CC50 (in vitro): > 50 µM

SMILES: COc1cc2cc3c(c(N4CCN(CCN5CCOCC5)CC4)c2cc1OC)C(=O)OC3 [Example 143, 6,7-dimethoxy-9-(4-(2-morpholinoethyl)piperazin-1-yl)naphtho[2,3-c]furan-1(3H)-one]
- SI (Selectivity Index, CC50/IC50) (SARS-COV-2): 1.0
- IC50 (SARS-COV-2; [1]): > 50 µM
- CC50 (in vitro): > 50 µM

SMILES: CCCCN(C)c1ccc(-c2c3c(cc4cc(OC)c(OC)cc24)COC3=O)cn1 [Example 180, 9-(6-(butyl(methyl)amino)pyridin-3-yl)-6,7-dimethoxynaphtho[2,3-c]furan-1(3H)-one]
- SI (Selectivity Index, CC50/IC50) (SARS-COV-2): 73.59
- IC50 (SARS-COV-2; [1]): 0.68 µM
- CC50 (in vitro): > 50 µM

SMILES: COc1cc2cc3c(c(-c4cnc(OCCN5C[C@@H](C)O[C@@H](C)C5)nc4)c2cc1OC)C(=O)OC3 [Example 54, 9-(2-(2-((2S,6R)-2,6-dimethylmorpholino)ethoxy)pyrimidin-5-yl)-6,7-dimethoxynaphtho[2,3-c]furan-1(3H)-one]
- SI (Selectivity Index, CC50/IC50) (SARS-COV-2): 1.00
- IC50 (SARS-COV-2; [1]): > 50 µM
- CC50 (in vitro): > 50 µM

SMILES: COc1cc2cc3c(c(-c4cnc(N5C[C@H](C)O[C@@H](C)C5)nc4)c2cc1OC)C(=O)OC3 [Example 62, 9-(2-((2S,6S)-2,6-dimethylmorpholino)pyrimidin-5-yl)-6,7-dimethoxynaphtho[2,3-c]furan-1(3H)]
- SI (Selectivity Index, CC50/IC50) (SARS-COV-2): 1.00
- IC50 (SARS-COV-2; [1]): > 50 µM
- CC50 (in vitro): > 50 µM

SMILES: COc1cc2cc3c(c(-c4cnc(NCC5CC5)nc4)c2cc1OC)C(=O)OC3 [Example 67, 9-(2-((cyclopropylmethyl)amino)pyrimidin-5-yl)-6,7-dimethoxynaphtho[2,3-c]furan-1(3H)-one]
- SI (Selectivity Index, CC50/IC50) (SARS-COV-2): 2.72
- IC50 (SARS-COV-2; [1]): 18.4 µM
- CC50 (in vitro): > 50 µM

SMILES: COc1cc2cc3c(c(-c4cnc(N(C)C)nc4)c2cc1OC)C(=O)OC3 [Example 11, 9-(2-(dimethylamino)pyrimidin-5-yl)-6,7-dimethoxynaphtho[2,3-c]furan-1(3H)-one]
- SI (Selectivity Index, CC50/IC50) (SARS-COV-2): 309.03
- IC50 (SARS-COV-2; [1]): 0.16 µM
- CC50 (in vitro): > 50 µM

SMILES: CNc1cccc(-c2c3c(cc4cc(OC)c(OC)cc24)COC3=O)c1 [Example 257, 6,7-dimethoxy-9-(3-(methylamino)phenyl)naphtho[2,3-c]furan-1(3H)-one]
- SI (Selectivity Index, CC50/IC50) (SARS-COV-2): 6.24
- IC50 (SARS-COV-2; [1]): 8.01 µM
- CC50 (in vitro): > 50 µM

SMILES: COc1cc2cc3c(c(-c4ccc(N(C)CCc5cn(C)c6ccccc56)nc4)c2cc1OC)C(=O)OC3 [Example 196, 6,7-dimethoxy-9-(6-(methyl(2-(1-methyl-1H-indol-3-yl)ethyl)amino)pyridin-3-yl)naphtho[2,3-c]furan-1(3H)-one]
- SI (Selectivity Index, CC50/IC50) (SARS-COV-2): 20.54
- IC50 (SARS-COV-2; [1]): 2.43 µM
- CC50 (in vitro): > 50 µM

SMILES: COc1cc2cc3c(c(-c4cnccn4)c2cc1OC)C(=O)OC3 [Example 32, 6,7-dimethoxy-9-(pyrazin-2-yl)naphtho[2,3-c]furan-1(3H)-one]
- SI (Selectivity Index, CC50/IC50) (SARS-COV-2): 1.00
- IC50 (SARS-COV-2; [1]): > 50 µM
- CC50 (in vitro): > 50 µM

SMILES: COc1cc2cc3c(c(-c4ccc(C(F)(F)F)c5cccnc45)c2cc1OC)C(=O)OC3 [Example 119, 6,7-dimethoxy-9-(5-(trifluoromethyl)quinolin-8-yl)naphtho[2,3-c]furan-1(3H)-one]
- SI (Selectivity Index, CC50/IC50) (SARS-COV-2): 11.45
- IC50 (SARS-COV-2; [1]): 4.36 µM
- CC50 (in vitro): > 50 µM

SMILES: COc1cc2cc3c(c(-c4cnc5ccc(N6CCOCC6)nn45)c2cc1OC)C(=O)OC3 [Example 220, 6,7-dimethoxy-9-(6-morpholinoimidazo[1,2-b]pyridazin-3-yl)naphtho[2,3-c]furan-1(3H)-one]
- SI (Selectivity Index, CC50/IC50) (SARS-COV-2): 1.00
- IC50 (SARS-COV-2; [1]): > 50 µM
- CC50 (in vitro): > 50 µM

SMILES: COc1ccc2c(-c3c4c(cc5cc(OC)c(OC)cc35)COC4=O)ccnc2c1 [Example 150, 6,7-dimethoxy-9-(7-methoxyquinolin-4-yl)naphtho[2,3-c]furan-1(3H)-one]
- SI (Selectivity Index, CC50/IC50) (SARS-COV-2): 1.0
- IC50 (SARS-COV-2; [1]): > 50 µM
- CC50 (in vitro): > 50 µM

SMILES: COc1ncc(-c2c3c(cc4cc(OC)c(OC)cc24)COC3=O)cn1 [Example 26, 6,7-dimethoxy-9-(2-methoxypyrimidin-5-yl)naphtho[2,3-c]furan-1(3H)-one]
- SI (Selectivity Index, CC50/IC50) (SARS-COV-2): 9.52
- IC50 (SARS-COV-2; [1]): 5.25 µM
- CC50 (in vitro): > 50 µM

SMILES: CCN(c1ncc(-c2c3c(cc4cc(OC)c(OC)cc24)COC3=O)cn1)C(C)C.Cl [Example 75, 9-(2-(ethyl(isopropyl)amino)pyrimidin-5-yl)-6,7-dimethoxynaphtho[2,3-c]furan-1(3H)-one hydrochloride]
- SI (Selectivity Index, CC50/IC50) (SARS-COV-2): 60.56
- IC50 (SARS-COV-2; [2]): 0.83 µM
- CC50 (in vitro): > 50 µM

SMILES: CCN(C)c1ncc(-c2c3c(cc4cc(OC)c(OC)cc24)COC3=O)cn1 [Example 106, 9-(2-(ethyl(methyl)amino)pyrimidin-5-yl)-6,7-dimethoxynaphtho[2,3-c]furan-1(3H)-one hydrochloride]
- SI (Selectivity Index, CC50/IC50) (SARS-COV-2): 297.58
- IC50 (SARS-COV-2; [2]): 0.17 µM
- CC50 (in vitro): > 50 µM

SMILES: COc1cc2cc3c(c(-c4ccc(C(=O)C(F)(F)F)cc4)c2cc1OC)C(=O)OC3 [Example 210, 6,7-dimethoxy-9-(4-(2,2,2-trifluoroacetyl)phenyl)naphtho[2,3-c]furan-1(3H)-one]
- SI (Selectivity Index, CC50/IC50) (SARS-COV-2): 4.91
- IC50 (SARS-COV-2; [2]): 10.2 µM
- CC50 (in vitro): > 50 µM

SMILES: COc1cc2cc3c(c(-c4ccc(N(C)CCC5OCCO5)nc4)c2cc1OC)C(=O)OC3 [Example 161, 9-(6-((2-(1,3-dioxolan-2-yl)ethyl)(methyl)amino)pyridin-3-yl)-6,7-dimethoxynaphtho[2,3-c]furan-1(3H)-one]
- SI (Selectivity Index, CC50/IC50) (SARS-COV-2): 7.74
- IC50 (SARS-COV-2; [1]): 6.46 µM
- CC50 (in vitro): > 50 µM

SMILES: CCCCN(C)c1ccc(-c2c3c(c(OC)c4cc(OC)c(OC)cc24)C(=O)OC3)cn1.Cl [Example 261, 4-(6-(butyl(methyl)amino)pyridin-3-yl)-6,7,9-trimethoxynaphtho[2,3-c]furan-1(3H)-one]
- SI (Selectivity Index, CC50/IC50) (SARS-COV-2): 4.21
- IC50 (SARS-COV-2; [2]): 11.9 µM
- CC50 (in vitro): > 50 µM

SMILES: CCN(CCO)c1ncc(-c2c3c(cc4cc(OC)c(OC)cc24)COC3=O)cn1.Cl [Example 81, 9-(2-(ethyl(2-hydroxyethyl)amino)pyrimidin-5-yl)-6,7-dimethoxynaphtho[2,3-c]furan-1(3H)-one hydrochloride]
- SI (Selectivity Index, CC50/IC50) (SARS-COV-2): 2.43
- IC50 (SARS-COV-2; [2]): 20.6 µM
- CC50 (in vitro): > 50 µM
